Measurements published in patent US11071731B2, “Allosteric modulators of the mu opioid receptor” (Chiromics, LLC, priority 2017, dated 2021).
Where two headings read alike, the source gives them in different places.

How the values were obtained:
[1] = biological target: T1, PK-tagged delta opioid receptors (U20S-DOR1) (Homo sapiens, UniProt P41143); test: β-arrestin recruitment in U20S PathHunter cells, PAM mode with EC20 DADLE; format: cell-based; conditions: EC20 (0.8 nM) DADLE; concentrations up to 25 μM
T1 construct: host or cells: U20S Path Hunter cells

[2] = biological target: T2, PK-tagged kappa opioid receptors (U20S-KOR1) (Homo sapiens, UniProt P41145); test: β-arrestin recruitment in U20S PathHunter cells, PAM mode with EC20 Dynorphin A; format: cell-based; conditions: EC20 (0.8 nM) Dynorphin A; concentrations up to 25 μM
T2 construct: host or cells: U20S Path Hunter cells

mu opioid receptor (MOR) [3] = biological target: T3, mu opioid receptor (MOR) (Homo sapiens, UniProt P35372); test: Hit Hunter cAMP signaling assay (adenylyl cyclase inhibition), PAM mode with EC20 endomorphin-1; format: cell-based; conditions: for cAMP Max. Resp.: maximal response for adenylyl cyclase inhibition
mu opioid receptor (MOR) [4] = biological target: T3, mu opioid receptor (MOR); test: PathHunter β-arrestin recruitment assay, PAM mode with EC20 endomorphin-1; format: cell-based; conditions: for β-arr Max. Resp.: maximal response for β-arrestin recruitment
In short: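 Enzyme fragment complementation read-out: β-gal ED fragment fused to receptor, EA fused to β-arrestin, recruitment restoring β-gal activity detected by chemiluminescence. EC50 and percent maximal response derived for each compound.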

MOR [5] = biological target: T4, MOR (Homo sapiens, UniProt P35372); test: cell-based; conditions: EC20 morphine agonism of MOR
MOR [6] = biological target: T4, MOR; test: cell-based; conditions: EC20 Oxycodone agonism of MOR
MOR [7] = biological target: T4, MOR; test: cell-based; conditions: EC20 morphine agonism of MOR; remark: listed apart in the source
MOR [8] = biological target: T4, MOR; format: cell-based; conditions: cAMP; EC20 EM2 agonism of MOR
MOR [9] = biological target: T4, MOR; format: cell-based; conditions: β-arrestin; EC20 EM2 agonism of MOR
MOR [10] = biological target: T4, MOR; format: cell-based
MOR [11] = biological target: T4, MOR; test: cell-based; conditions: EC20 Oxycodone agonism of MOR; remark: listed apart in the source
MOR [12] = biological target: T4, MOR; format: cell-based; remark: listed apart in the source
[13] = biological target: T5, mu opioid receptor subtype OPRM1 (Homo sapiens, UniProt P35372); test: cell-based
[14] = biological target: T5, mu opioid receptor subtype OPRM1; test: β-arrestin recruitment assay, antagonist format; format: cell-based; conditions: Table 18
Experimental: Beta-Arrestin Pathway: The PathHunter β-arrestin assay monitors the activation of a GPCR in a homogenous, non-imaging assay format using a technology developed by DiscoveRx called Enzyme Fragment Complementation (EFC) with beta-galactosidase (β-Gal) as the functional reporter. […] EA is fused to β-Arrestin and ED is fused to the GPCR of interest. When the GPCR is activated and β-arrestin is recruited to the receptor, ED and EA complementation occurs, restoring β-gal activity, which is measured using chemiluminescent PathHunter Detection Reagents.
Similar results were obtained when agonist and antagonist activity were assayed using cAMP signaling as the readout.

Sprague-Dawley rats [15] = test: Respiratory depression: blood oxygen saturation by pulse oximetry; format: in vivo; conditions: subcutaneous; morphine 10 mg/kg, compound 9 15, 30, 60 mg/kg; 90 minutes
Experimental: Respiratory depression is a significant side effect associated with opioid treatment of acute and chronic pain. Drug-related overdose deaths are often a function of the respiratory depression which occurs with opioid use. Efforts to generate analgesics that dissociate pain relief from side effects are critical to the advancement of public health. […] […].
Blood oxygen saturation was assessed in awake rats with the MouseOx oximeter system (Starr Life Sciences, Holliston, Mass.). Up to 5 samples were measured every 5 minutes for 15 minutes prior to dosing and 90 minutes after dosing. Each animal was habituated to the device over several days prior to the study.

Sprague-Dawley rats [16] = test: Gastrointestinal transit of charcoal bolus and stomach contents; conditions: morphine 10 mg/kg, compound 9 15, 30, 60 mg/kg
OPRM1 receptor = OPRM1 receptor (Homo sapiens, UniProt P35372)
[17] = biological target: T5, mu opioid receptor subtype OPRM1
[18] = β-arrestin recruitment, read-out: β-arr. EC50

T3 sequence (P35372 whole entry): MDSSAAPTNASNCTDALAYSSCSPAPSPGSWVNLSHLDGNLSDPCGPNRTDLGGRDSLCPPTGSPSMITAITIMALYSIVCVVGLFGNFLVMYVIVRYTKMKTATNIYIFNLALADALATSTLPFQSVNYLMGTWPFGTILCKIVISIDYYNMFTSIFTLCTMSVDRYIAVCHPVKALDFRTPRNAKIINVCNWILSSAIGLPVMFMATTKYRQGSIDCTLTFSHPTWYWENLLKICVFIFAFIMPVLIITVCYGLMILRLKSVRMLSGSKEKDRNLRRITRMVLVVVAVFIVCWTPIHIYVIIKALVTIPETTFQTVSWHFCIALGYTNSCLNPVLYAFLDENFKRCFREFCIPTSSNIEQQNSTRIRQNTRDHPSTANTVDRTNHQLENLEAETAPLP
T4 sequence (P35372 whole entry): as above
T5 sequence (P35372 whole entry): as above
OPRM1 receptor, sequence (P35372 whole entry): as above

O=S(=O)(c1ccc(Cl)cc1)N1CCCCC1c1ccc(F)c(Br)c1 (racemic) [compound 60]
positive allosteric effect on DOR signaling [1]: no significant positive allosteric effect | positive allosteric effect on KOR signaling [2]: no significant positive allosteric effect | cAMP Max Resp. (mu opioid receptor (MOR) [3]; adenylyl cyclase inhibition, activity switching by MOR PAMs): D (D represents a maximal response of < 40%) | EC50 (mu opioid receptor (MOR) [3]; adenylyl cyclase inhibition, activity switching by MOR PAMs, read-out: cAMP EC50): > 2.1 µM | EC50 (mu opioid receptor (MOR) [3]; adenylyl cyclase inhibition, read-out: cAMP EC50): < 0.7 µM | cAMP Max. Resp. (mu opioid receptor (MOR) [3]): E (E represents a maximal response of 40-60%) | β-arr Max. Resp. (mu opioid receptor (MOR) [4]): F (F represents a maximal response of > 60%) | β-arrestin Max Response (mu opioid receptor (MOR) [4]; β-arrestin recruitment, activity switching by MOR PAMs): F (F represents a maximal response of >60%) | EC50 (mu opioid receptor (MOR) [4]; β-arrestin recruitment, activity switching by MOR PAMs, read-out: β-arrestin EC50): > 2.1 µM | EC50 (mu opioid receptor (MOR) [4]; [18]): < 0.7 µM

COc1ccc(C2CCCCN2S(=O)(=O)c2ccc(Cl)cc2)cc1Br (single isomer, unassigned) [compound 6]
EC50 (MOR [5]; RC50, cAMP): 2.96 µM | Max. Response (MOR [5]; cAMP): 93 | EC50 (MOR [6]; RC50, cAMP): 0.32 µM | Max. Response (MOR [6]; cAMP): 90 | EC50 (MOR [7]; RC50, β-arrestin): 8.25 µM | Max. Response (MOR [7]; β-arrestin): 421 | Max. Response (MOR [8]): 91 | Max. Response (MOR [9]): 117 | factor of increase of the affinity (α) of oxycodone (MOR [10]; β-arrestin): 2 | factor of increase of the efficacy (β) of oxycodone (MOR [10]; β-arrestin): 80 | shift in the potency of oxycodone (MOR [10]; β-arrestin recruitment): concentration-dependent and saturable leftward shifts | EC50 (MOR [11]; RC50, β-arrestin): 4.83 µM | Max. Response (MOR [11]; β-arrestin): 384 | shift in the potency of oxycodone (MOR [12]; adenylyl cyclase inhibition): concentration-dependent and saturable leftward shifts | factor of increase of the affinity (α) of oxycodone (MOR [12]; cAMP): 4 | factor of increase of the efficacy (β) of oxycodone (MOR [12]; cAMP): 4 | effective potency for PAM effect (MOR [12]; cAMP signal, oxycodone): 0.234 µM | allosteric activity for cAMP signaling (mu opioid receptor (MOR) [3]; EC20 endomorphin-1 concentration of 0.45 nM): moderate positive allosteric effect | EC50 (mu opioid receptor (MOR) [3]; RC50, cAMP, EC20 EM-1 agonism of MOR): 0.5 µM | EC50 (mu opioid receptor (MOR) [3]; cAMP EC50, adenylyl cyclase inhibition): < 0.7 µM | Max. Response (mu opioid receptor (MOR) [3]; cAMP, EC20 EM-1 agonism of MOR): 93 | cAMP Max. Resp. (mu opioid receptor (MOR) [3]): F (F represents a maximal response of > 60%) | EC50 [13]: > 25 µM | allosteric activity for β-arrestin recruitment (mu opioid receptor (MOR) [4]; EC20 endomorphin-1 concentration of 4.5 nM): moderate positive allosteric effect | β-arr Max. Resp. (mu opioid receptor (MOR) [4]): F (F represents a maximal response of > 60%) | EC50 (mu opioid receptor (MOR) [4]; [18]): 0.7 to 2.1 µM | Max. Response (mu opioid receptor (MOR) [4]; β-arrestin, EC20 EM-1 agonism of MOR): 173 | EC50 (mu opioid receptor (MOR) [4]; β-arrestin, EC20 EM-1 agonism of MOR, read-out: RC50 (the source's name)): 2.52 µM | IC50 [14]: > 25 µM

CN1CC[C@]23c4c5ccc(O)c4O[C@H]2[C@@H](O)C=C[C@H]3[C@H]1C5 [morphine, reference compound]
oxygen saturation / respiratory depression (Sprague-Dawley rats [15]): significant reduction in oxygen saturation | stomach weight (Sprague-Dawley rats [16]; 20 minutes after charcoal): increased | GI transit (Sprague-Dawley rats [16]; subcutaneous 1 hour before charcoal): significantly decreased

COc1ccc2c3c1O[C@H]1C(=O)CC[C@@]4(O)[C@@H](C2)N(C)CC[C@]314 [oxycodone]
% Max. Resp., cAMP (OPRM1 receptor): 100.62% | % Max. Resp., β-arrestin [17]: 102.03%
